# Measured values as given in PMC10229426, “An optimized bioluminescent substrate for non-invasive imaging in the brain” (Nature Chemical Biology, 2023).
# Values joined by “and” are separate entries in the source; they are usually repeats but may differ in a detail not shown here. Equal values may be shown once. “Also recorded” adds a separate entry of the source.
# Assays:
# [1] = probably due to acidity of the solution; cited from earlier work
# [2] = system: AkaLuc; test: Bioluminescence imaging of transgenic mice expressing AkaLuc in the brain; assay type: in vivo, mouse; conditions: 3.0- or 1.3-µmol doses
# Source text: (§1) Transgenic reporter mice with LSL-CAG-luciferase (Antares, FLuc or AkaLuc) inserted at the H11 locus (H11P) were generated by φC31-mediated recombination in blastocysts[48] by the Stanford Transgenic, Knockout and Tumor Model Center. For substrate comparisons, 2- to 4-month-old transgenic mice doubly hemizygous for a Camk2a-cre (Jackson Laboratory, 005359), Vgat-IRES-cre (Jackson Laboratory), Vglut2-IRES-cre (Jackson Laboratory, 016963) or Alb-cre (Jackson Laboratory, 003574) driver and a CAG-LSL-Antares, CAG-LSL-AkaLuc or CAG-LSL-FLuc reporter were anesthetized by inhalation of isoflurane for 5 min. An electric shaver was used to remove scalp hair in Camk2a-cre, Vglut2-IRES-cre or Vgat-IRES-cre mice or abdominal hair in Alb-cre mice. Nair depilatory cream (Church and Dwight) was then applied to the shaved area for 1 min, and remaining hair was removed with a piece of sterile gauze. […]
# (§2) For mice expressing Antares, indicated amounts of Fz were dissolved in 480 µl of a PEG-300-based formulation consisting of 10% glycerol, 10% ethanol, 10% hydroxypropylcyclodextrin and 35% PEG-300 in water, or indicated amounts of lyophilized Fz analogs with P-407 vehicle were reconstituted in 150–500 µl of DPBS buffer. […] Integrated luminescence was quantified using the Fiji version of the ImageJ program (NIH)[49], with further statistical analysis performed in GraphPad Prism (version 9.0.0).
# [3] = target: T1, Antares luciferase (Oplophorus gracilirostris, UniProt Q9GV45, A31E/A60N/A81I/F95D/I117V/K70R/L54V/L99Q/M102K/N193R/P142E/Q151K/Q38R/Q45L/V71I/Y165I); test: Bioluminescence imaging of transgenic mice for substrate comparison (brain, Cre-driven Antares); assay type: in vivo, mouse
# T1 construct: expressed in transfected cells; host or cells: transgenic mice with CAG-LSL-Antares at the H11 locus, crossed to Cre driver lines (neurons or liver)
# Source text: Transgenic reporter mice with LSL-CAG-luciferase (Antares, FLuc or AkaLuc) inserted at the H11 locus (H11P) were generated by φC31-mediated recombination in blastocysts[48] by the Stanford Transgenic, Knockout and Tumor Model Center. For substrate comparisons, 2- to 4-month-old transgenic mice doubly hemizygous for a Camk2a-cre (Jackson Laboratory, 005359), Vgat-IRES-cre (Jackson Laboratory), Vglut2-IRES-cre (Jackson Laboratory, 016963) or Alb-cre (Jackson Laboratory, 003574) driver and a CAG-LSL-Antares, CAG-LSL-AkaLuc or CAG-LSL-FLuc reporter were anesthetized by inhalation of isoflurane for 5 min. An electric shaver was used to remove scalp hair in Camk2a-cre, Vglut2-IRES-cre or Vgat-IRES-cre mice or abdominal hair in Alb-cre mice. Nair depilatory cream (Church and Dwight) was then applied to the shaved area for 1 min, and remaining hair was removed with a piece of sterile gauze. The area was then rinsed with DPBS and cleaned with 70% ethanol with a piece of sterile gauze.
# For mice expressing Antares, indicated amounts of Fz were dissolved in 480 µl of a PEG-300-based formulation consisting of 10% glycerol, 10% ethanol, 10% hydroxypropylcyclodextrin and 35% PEG-300 in water, or indicated amounts of lyophilized Fz analogs with P-407 vehicle were reconstituted in 150–500 µl of DPBS buffer. For mice expressing FLuc, indicated amounts of D-luciferin were dissolved in PBS. For mice expressing AkaLuc, 3 μmol (1.0 mg) of AkaLumine-HCl (Sigma-Aldrich) was dissolved in 150 μl of 0.9% NaCl. Substrates were then injected into the peritoneal cavity in the left lower quadrant, with the maximum injectable volume at 480 µl. Immediately after substrate injection, bioluminescent images were acquired in an Ami HT bioluminescence imaging system running Aura software version 3.1 or 4.0 (Spectral Instruments Imaging) for 15–30 min at intervals of 1 min. For comparing substrates at 1.3 µmol, the following imager settings were used: emission filter open, field of view of 25 cm, f-stop of 1.2, binning of 2 × 2 and exposure time of 2 s. For comparison with >1.3-µmol substrates, the following settings were used: emission filter open, field of view of 25 cm, f-stop of 1.2, binning of 1 × 1 and exposure time of 1 s. Pseudocolor images and intensity scale bars were generated with Aura software. Integrated luminescence was quantified using the Fiji version of the ImageJ program (NIH)[49], with further statistical analysis performed in GraphPad Prism (version 9.0.0).
# [4] = Toxicity in mice: necropsy and histopathology; assay type: in vivo, C57BL/6 mice; design: key: 0: absent; 1: minimal; 2: mild; 3: moderate; 4: severe; conditions: 1 day, 4.2 µmol, 20 mg P-407; individual mice
# Method: (§3) Male C57BL/6 mice of 2 months of age were killed by CO2 asphyxiation and cardiac exsanguination. All mice were weighed, and a complete gross examination of the external and internal organs was performed. […] Formalin-fixed tissues were processed routinely, embedded in paraffin, sectioned at 5 μm and stained with hematoxylin and eosin. All slides were blindly evaluated for histologic treatment-related effects (Supplementary Table 1) by a board-certified veterinary pathologist.
# [5] = Toxicity in mice: necropsy and histopathology; assay type: in vivo, C57BL/6 mice; design: key to BMH, brain multifocal hemorrhage score / HN, hepatocellular necrosis score / RTD, renal tubular dilation score / RTDR, renal tubular degeneration and regeneration score: 0: absent; 1: minimal; 2: mild; 3: moderate; 4: severe; key to HMNH, heart myocardial necrosis and hemorrhage score: 0: no lesions; 1: <5% of myocardium affected; 2: 5-10% affected; 3: 10-25% affected; 4: >25% affected; key to LC, Liver capsule score: 0: normal; 1: segmental subcapsular necrosis +/- neutrophilic infiltrate; Total organ score: scale not given here
# Method: as §3
# [6] = Solubility in aqueous formulation with poloxamer-407 (P-407); assay type: physicochemical
# Method: Stock samples of solid formulated Fz analogs were prepared using the following protocol. First, P-407 (Pluronic F127) was placed into a screw-cap glass vial. The polymer was then heated to 75 °C in a water bath until melted. Fz analogs dissolved in ethanol were added to the hot polymer, mixing well with a thin spatula. Additional rinses of Fz analogs in ethanol were added to the hot polymer for quantitative transfer. The solvent was then removed under vacuum. This concentrated sample was diluted with water to make a dispensing mixture of 4–9 mM Fz analogs in water. Next, this aqueous stock was aliquoted into glass vials, frozen and lyophilized overnight to give a yellow cake. For i.p. injection into mice, DPBS (Corning, 21-031-CV) was added to the vial and rocked to create a clear solution.
# [7] = target: T1, Antares luciferase; test: Non-invasive detection of Antares in the liver (Alb-cre driver); assay type: in vivo, mouse; conditions: 1.3 µmol i.p.
# Source text: as §1, §2
# [8] = i.p., CAG-LSL-Antares x Vgat-IRES-cre mice
# [9] = 1 day, 4.2 µmol, 20 mg P-407, individual mice
# T1 sequence (Q9GV45 other isoform, or with tags, fused parts or gaps with the stated changes): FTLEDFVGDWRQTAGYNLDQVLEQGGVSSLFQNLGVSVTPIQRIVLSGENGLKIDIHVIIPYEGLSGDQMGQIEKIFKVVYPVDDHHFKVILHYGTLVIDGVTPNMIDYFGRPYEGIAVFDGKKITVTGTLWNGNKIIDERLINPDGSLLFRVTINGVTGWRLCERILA
smiles,measurement,setting,value
CN(C)c1ccc(/C=C/C=C/C2=N[C@@H](C(=O)O)CS2)cc1 [AkaLumine],toxicity of administered solution,[1],noticeable toxicity of the Akalumine solution to the skin and heart
same,duration of brain signal relative to Antares–CFz,[2],more sustained signal
"O=c1c(Cc2ccco2)nc2c(Cc3ccccc3)[nH]c(-c3cccc(O)c3)cn1-2 [HFz, hydrofurimazine, reference compound]",brain signal brightness relative to Fz,[3]; [8],more than tenfold dimmer
same,brain signal distribution,[3]; [8],signal from the brain similar to Fz
Cc1ccc(Cc2nc3c(Cc4ccccc4F)[nH]c(-c4cccc(F)c4F)cn-3c2=O)o1 [compound 13],brain brightness relative to 6,[3]; 1.3 µmol i.p. with 10 mg P-407,brighter
same,brain brightness relative to 6 (factor),"[3]; 1.3 µmol i.p. with 10 mg P-407, Vglut2-IRES-cre or CaMKIIα-cre",1.5–2.0
same,"HPMC, heart perivascular myxomatous change score",[4],0
same,"HT, heart telangiectasia score",[4],0
same,"KCHMV, Kupffer cell hyperplasia and microvesicular vacuolation score",[4],0
same,toxicity after a single i.p. injection,"[5]; 4.2 µmol with 20 mg P-407, one injection",severe kidney pathology and weight loss; also recorded: more toxic than 6
same,"BMH, brain multifocal hemorrhage score",[5]; [9],0
same,"HMNH, heart myocardial necrosis and hemorrhage score",[5]; [9],0
same,"HN, hepatocellular necrosis score",[5]; [9],0
same,"LC, Liver capsule score",[5]; [9],0
same,"RTD, renal tubular dilation score",[5]; [9],2 (5%–25% of tubules affected) (2×) and 3 (25%–50% of tubules affected)
same,"RTDR, renal tubular degeneration and regeneration score",[5]; [9],3 (25%–50% of tubules affected) (2×) and 2 (5%–25% of tubules affected)
same,"SRPHMV, splenic red pulp histiocytosis with microvesicular vacuolation score",[5]; [9],0
same,Total organ score,[5]; [9],5 and 4 and 6
same,∆ weight,[5]; [9],–7.9%; also recorded: –7.2%; also recorded: –6.7%
Cc1ccc(Cc2nc3c(Cc4ccccc4)[nH]c(-c4cccc(F)c4F)cn-3c2=O)o1 [compound 10],relative solubility in aqueous formulation with P-407,[6],reduced solubility
same,solubilization of 4.2 µmol in P-407 formulation,[6]; 4.2 µmol,incomplete solubilization
"Nc1cccc(-c2cn3c(=O)c(Cc4ccco4)nc-3c(Cc3ccccc3F)[nH]2)c1F [FFz, fluorofurimazine, reference compound]",brain signal distribution,[3]; Antares driven by Camk2a-cre,signal predominantly from the hindbrain
same,brain signal distribution,[3]; [8],"low brightness from the forebrain, higher signal from the hindbrain, and highest signal from regions in the head outside the brain"
same,"liver signal, 6 versus FFz",[7],brighter in the liver
